Experimental data reported in patent publication US20120010075A1 (priority 2009, published 2012).
Read-outs that look alike come from different tables or passages of the source.

Tests used:
Ustilago maydis = experiment: In vitro fungitoxicity of hydrazones with and without copper towards Ustilago maydis (Example 29, Table 4); format: cell-based; details: 1 μg/mL, 48 h; for % Inhn. Plus copper Observed: copper-plus medium (CuCl2, 10 μM); for inhibition of growth at 1 µg/mL: Mycosarcoma maydis, copper-minus medium, read-out: % Inhn. Minus copper Observed
[1] = test system: Leptosphaeria nodorum (LEPTNO); experiment: In vitro fungitoxicity of hydrazones with and without copper towards Leptosphaeria nodorum (Example 26); format: cell-based; details: 72 h at 25° C.; for inhibition of growth at 0.05 µg/mL: Parastagonospora nodorum, 72 h, copper-minus medium, read-out: LEPTNO % Inhn. Minus Copper Observed
[2] = test system: Septoria tritici isolate USA-184; experiment: In vitro fungitoxicity of hydrazones with and without copper towards Septoria tritici (Example 30, Table 5); format: cell-based; details: Zymoseptoria tritici, 0.05 μg/mL
Phytophthora infestans = format: in vivo, Phytophthora infestans on tomato; details: applied 24 h before inoculation, assessed 7 days after inoculation
Phytophthora capsici = experiment: In vitro fungitoxicity of hydrazones with and without copper towards Phytophthora capsici (Example 28, Table 3); format: cell-based; details: 0.050 μg/mL, 48 h; for % Inhn Plus copper Observed: copper-plus AS medium (CuCl2, 50 μM); for inhibition of growth at 0.05 µg/mL: Phytophthora capsici, copper-minus AS medium, read-out: % Inhn Minus copper Observed
[3] = test compound Concn. 0.05 μg/mL
[4] = copper-plus medium (CuCl2 10 μM), test compound Concn. 0.05 μg/mL
[5] = Colby formula, CuCl2, read-out: % Inhibition Plus copper Predicted
[6] = copper-minus medium, 90 h, read-out: % Inhibition Minus copper Observed
[7] = copper-plus medium CuCl2, 90 h, read-out: % Inhibition Plus copper Observed
[8] = hydrazone 50 ppm with 50 μM CuCl2.2H2O, tomato late blight
[9] = compound 0.05 μg/mL, copper-plus medium (CuCl2.2H2O)
[10] = hydrazone 50 ppm + 50 μM CuCl2.2H2O, tomato

SMILES	% Inhn. Plus copper Observed (Ustilago maydis)	inhibition of growth at 1 µg/mL (Ustilago maydis)	melting point	inhibition of growth at 0.05 µg/mL [1, 3]	LEPTNO % Inhn. Plus Copper Observed [1, 4]	inhibition at 0.05 µg/mL [2, 5]	inhibition at 0.05 µg/mL [2, 6]	inhibition at 0.05 µg/mL [2, 7]	TLB % Control (Phytophthora infestans; [8])	% Inhn Plus copper Observed (Phytophthora capsici)	inhibition of growth at 0.05 µg/mL (Phytophthora capsici)	inhibition of growth at 0.05 µg/mL ([1]; compound 0.05 μg/mL)	LEPTNO % Inhn. Plus Copper Observed [1, 9]	TLB % Control (Phytophthora infestans; [10])
O=C(N/N=C/c1cc(Cl)cc(C(F)(F)F)c1O)c1ccccc1O [Example 384]	96.6%	13.6%	258 to 260 °C	28.6%	95.8%	57.5%	57.5%	97%	100.0%	71.1%	0%	–	–	–
O=C(N/N=C/c1cc(Br)cc(Br)c1O)c1ccccc1 [Example 121]	96.9%	0%	–	–	–	9.7%	9.7%	96.5%	–	90.4%	0%	0%	98.3%	88.1%
C/C(=N\NC(=O)c1ccccc1)c1ccccc1O [Example 230]	94.4%	11.9%	185 to 187 °C	–	–	43.6%	43.6%	96.7%	–	93.6%	5.8%	9%	98.3%	65.0%
O=C(N/N=C/c1cc(C(F)(F)F)cc(Cl)c1O)c1ccccc1O [Example 329]	41.8%	16.2%	258 to 260 °C	14%	93.5%	14.9%	14.9%	55.1%	99.0%	–	–	–	–	–
C/C(=N\NC(=O)c1ccc(Cl)cc1)c1cc(F)cc(F)c1O [Example 578]	93.8%	47.4%	276 to 280 °C	7.2%	98.0%	26.7%	26.7%	90.7%	100.0%	90.4%	2.8%	–	–	–
O=C(N/N=C/c1c(O)cccc1Cl)c1ccc([N+](=O)[O-])cc1 [Example 405]	90.0%	9.6%	> 300 °C	2.8%	96.2%	18.8%	18.8%	89.9%	98.0%	85.9%	0.6%	–	–	–
O=C(N/N=C/c1cccc(Cl)c1O)c1cccc(Cl)c1 [Example 427]	89.3%	34.3%	174 to 178 °C	26.1%	97.9%	43.8%	43.8%	96.7%	98.0%	88.6%	9.1%	–	–	–
Cc1ccc(C(=O)N/N=C/c2ccc(Cl)c(Cl)c2O)c(O)c1 [Example 364]	92.9%	65.5%	271 to 278 °C	8.4%	95.8%	22.4%	22.4%	93.7%	97.0%	23.2%	0%	–	–	–
C/C(=N\NC(=O)Cc1ccccc1)c1cc(Cl)cc(Cl)c1O [Example 140]	95.7%	0%	199 to 204 °C	–	–	0%	0%	96.6%	–	91.4%	0%	6.7%	96.7%	81.0%
O=C(N/N=C/c1cc(C(F)(F)F)ccc1O)c1ccccc1O [Example 443]	35.3%	10.2%	277 to 281 °C	14.6%	100.0%	5.8%	5.8%	92%	83.0%	91.2%	2.4%	–	–	–
O=C(N/N=C/c1cccc(C(F)(F)F)c1O)c1ccccc1O [Example 351]	97.7%	27.1%	230 to 234 °C	7.7%	96.1%	44.4%	44.4%	97.1%	100.0%	87.9%	0%	–	–	–
O=C(N/N=C/c1c(C(F)(F)F)ccc(Cl)c1O)c1ccccc1O [Example 455]	96.0%	0%	278 to 280 °C	16.7%	100.0%	27.5%	27.5%	92.4%	100.0%	30.8%	0%	–	–	–
O=C(N/N=C/c1cc(Cl)ccc1O)c1ccccc1O [Example 177]	33.3%	0%	–	–	–	0.2%	0.2%	95.2%	–	92.4%	0%	12.5%	95.2%	91.0%
Cc1ccccc1C(=O)N/N=C/c1cc(Cl)cc(Br)c1O [Example 162]	96.4%	8.8%	–	–	–	36.3%	36.3%	97.1%	–	91.6%	5.2%	0%	96.9%	94.0%
COc1cc(Br)cc(/C=N/NC(=O)c2cccc(Br)c2)c1O [Example 204]	77.0%	0%	–	–	–	0%	0%	84.4%	–	81.9%	6%	7.3%	95.5%	77.2%
